Experimental data taken from patent US9908912B2, “Triclosan derivatives and uses thereof” (priority 2012, dated 2018).
Values after ≈ are worked out from the molar mass of the structure shown.

How the values were obtained:
[1] = test system: Crono. sakazakii ATCC 29544; experiment: MIC in Nutrient Broth No. 2; type: cell-based, Cronobacter sakazakii; details: Nutrient Broth No. 2
Protocol: (§1) Bacteria species as indicated in Table 1 were incubated for approximately 24 hours at 37° C.
(§2) The tests were repeated with the addition of inducers. Methyl glycoside was the main inducer used, but other suitable inducers include isopropyl-β-D-thiogalactopyranoside, p-nitrophenyl-α-L-arabinopyranoside and p-nitrophenyl-β-D-xylopyranoside. Concentration of inducer in all cases was 100 μg/ml.

Ent. cloacae ATCC 13047 = experiment: MIC in Nutrient Broth No. 2; type: cell-based, Enterobacter cloacae; details: Nutrient Broth No. 2
Protocol: as §1, §2

[2] = test system: Kleb. aerogenes NCTC 88167; experiment: MIC in Nutrient Broth No. 2; type: cell-based, Klebsiella aerogenes; details: Nutrient Broth No. 2
Protocol: as §1, §2

[3] = test system: Aeromonas hydrophila OCC 778; experiment: MIC in Nutrient Broth No. 2; type: cell-based; details: Nutrient Broth No. 2
Protocol: as §1, §2

[4] = test system: Bacillus cereus ATCC 14579; experiment: MIC in Nutrient Broth No. 2; type: cell-based; details: Nutrient Broth No. 2
Protocol: as §1, §2

[5] = test system: Bacillus subtilis NCTC 10073; experiment: MIC in Nutrient Broth No. 2; type: cell-based; details: Nutrient Broth No. 2
Protocol: as §1, §2

[6] = test system: Citrobacter freundii OCC 851; experiment: MIC in Nutrient Broth No. 2; type: cell-based; details: Nutrient Broth No. 2
Protocol: as §1, §2

[7] = test system: Enterobacter aerogenes ATCC 13048; experiment: MIC in Nutrient Broth No. 2; type: cell-based; details: Nutrient Broth No. 2
Protocol: as §1, §2

[8] = test system: Enterococcus faecalis ATCC 29212; experiment: MIC in Nutrient Broth No. 2; type: cell-based; details: Nutrient Broth No. 2
Protocol: as §1, §2

[9] = test system: Enterococcus faecium ATCC 19434; experiment: MIC in Nutrient Broth No. 2; type: cell-based; details: Nutrient Broth No. 2
Protocol: as §1, §2

Escherichia coli = experiment: MIC in Nutrient Broth No. 2; type: cell-based; details: 8 strains, Nutrient Broth No. 2
Protocol: as §1, §2

Hafnia alvei ATCC 13337 = experiment: MIC in Nutrient Broth No. 2; type: cell-based; details: Nutrient Broth No. 2
Protocol: as §1, §2

[10] = test system: Proteus mirabilis ATCC 12453; experiment: MIC in Nutrient Broth No. 2; type: cell-based; details: Nutrient Broth No. 2
Protocol: as §1, §2

Proteus vulgaris OCC 195 = experiment: MIC in Nutrient Broth No. 2; type: cell-based; details: Nutrient Broth No. 2
Protocol: as §1, §2

[11] = test system: Ps. Aeruginosa ATCC 27853; experiment: MIC in Nutrient Broth No. 2; type: cell-based; details: Nutrient Broth No. 2
Protocol: as §1, §2

Salmonella = experiment: MIC in Nutrient Broth No. 2; type: cell-based; details: 11 strains; Nutrient Broth No. 2; with inducer 100 μg/ml
Protocol: as §1, §2

[12] = test system: Serratia marcescens OCC 217; experiment: MIC in Nutrient Broth No. 2; type: cell-based; details: Nutrient Broth No. 2
Protocol: as §1, §2

Staph. aureus = experiment: MIC in Nutrient Broth No. 2; type: cell-based, Staphylococcus aureus; details: 8 strains, Nutrient Broth No. 2
Protocol: as §1, §2

[13] = test system: Staph. saprophyticus ATCC 15305; experiment: MIC in Nutrient Broth No. 2; type: cell-based, Staphylococcus saprophyticus; details: Nutrient Broth No. 2
Protocol: as §1, §2

[14] = test system: Strep. pneumoniae ATCC 6305; experiment: MIC in Nutrient Broth No. 2; type: cell-based, Streptococcus pneumoniae; details: Nutrient Broth No. 2
Protocol: as §1, §2

Ent. faecalis = experiment: MIC in Nutrient Agar; type: cell-based, Enterococcus faecalis; details: Nutrient Agar containing 0.1 μg/ml of inducer; 37° C., 24 hours
Protocol: (§3) The triclosan-glycosides were added to Nutrient Agar (Oxoid CM0003; Thermofisher Scientific) and organisms were transferred onto the plates surface using a multi-point inoculation device (Oxoid Cathra, Thermofisher Scientific). The latter is essentially a metal plate containing a number of needles. Each needle tip (usually 36 per plate) dips into an organism suspension (in phosphate buffered saline; PBS) and the needles are then moved over the agar plate and lowered onto its surface. In this way the growth of colonies of up to 36 different organisms can be observed on one plate.
(§4) Nutrient Agar No. 2 was prepared according to the manufacturers instructions, autoclaved and cooled to 50° C. Test compounds were then added as filter sterilised solutions (50:50 deionised water:ethanol), to give final concentrations from 256 μg/ml to 0 μg/ml in doubling dilutions. […] The mixtures were swirled then four plates (25 ml molten agar) were poured for each concentration. Plates were dried in a laminar flow cabinet then inoculated with overnight cultures of organisms that had been decimally diluted twice in sterile saline solution (approximately 10^7 cfu/ml) using a multi-point inoculator. Plates were then incubated at 37° C. for 24 hours. MICs were determined as the concentration at which no growth was observed.

S. epidermidis = experiment: MIC in Nutrient Agar; type: cell-based, Staphylococcus epidermidis; details: 3 strains; Nutrient Agar containing 0.1 μg/ml of inducer; 37° C., 24 hours
Protocol: as §3, §4

S. haemolyticus = experiment: MIC in Nutrient Agar; type: cell-based, Staphylococcus haemolyticus; details: Nutrient Agar containing 0.1 μg/ml of inducer; 37° C., 24 hours
Protocol: as §3, §4

S. saprophyticus = experiment: MIC in Nutrient Agar; type: cell-based, Staphylococcus saprophyticus; details: Nutrient Agar containing 0.1 μg/ml of inducer; 37° C., 24 hours
Protocol: as §3, §4

Str. pyogenes = experiment: MIC in Nutrient Agar; type: cell-based, Streptococcus pyogenes; details: Nutrient Agar containing 0.1 μg/ml of inducer; 37° C., 24 hours
Protocol: as §3, §4

C. freundii = experiment: MIC in Nutrient Agar; type: cell-based, Citrobacter freundii; details: Nutrient Agar containing 0.1 μg/ml of inducer; 37° C., 24 hours
Protocol: as §3, §4

Cr. sakazakii = experiment: MIC in Nutrient Agar; type: cell-based, Cronobacter sakazakii; details: Nutrient Agar containing 0.1 μg/ml of inducer; 37° C., 24 hours
Protocol: as §3, §4

Ent. aerogenes = experiment: MIC in Nutrient Agar; type: cell-based, Enterobacter aerogenes; details: Nutrient Agar containing 0.1 μg/ml of inducer; 37° C., 24 hours
Protocol: as §3, §4

Ent. cloacae = experiment: MIC in Nutrient Agar; type: cell-based, Enterobacter cloacae; details: Nutrient Agar containing 0.1 μg/ml of inducer; 37° C., 24 hours
Protocol: as §3, §4

Bacillus cereus = experiment: MIC in Nutrient Agar; type: cell-based; details: Nutrient Agar containing 0.1 μg/ml of inducer; 37° C., 24 hours
Protocol: as §3, §4

Hafnia alvei = experiment: MIC in Nutrient Agar; type: cell-based; details: Nutrient Agar containing 0.1 μg/ml of inducer; 37° C., 24 hours
Protocol: as §3, §4

Ps. aeruginosa = experiment: MIC in Nutrient Agar; type: cell-based; details: Nutrient Agar containing 0.1 μg/ml of inducer; 37° C., 24 hours
Protocol: as §3, §4

Kleb. aerogenes = experiment: MIC in Nutrient Agar; type: cell-based, Klebsiella aerogenes; details: Nutrient Agar containing 0.1 μg/ml of inducer; 37° C., 24 hours
Protocol: as §3, §4

OC[C@H]1O[C@@H](Oc2cc(Cl)ccc2Oc2ccc(Cl)cc2Cl)[C@H](O)[C@@H](O)[C@@H]1O [β-D-Glucoside, triclosan-β-D-glucopyranoside]
MIC ([1]; with inducer 100 μg/ml): 8 µg/mL (≈ 17.7 µM)
MIC ([1]; without inducer): 64 µg/mL (≈ 142 µM)
MIC (Ent. cloacae ATCC 13047; with inducer 100 μg/ml): 1 µg/mL (≈ 2.21 µM)
MIC (Ent. cloacae ATCC 13047; without inducer): 16 µg/mL (≈ 35.4 µM)
MIC ([2]; with inducer 100 μg/ml): 4 µg/mL (≈ 8.86 µM)
MIC ([2]; without inducer): 32 µg/mL (≈ 70.8 µM)
MIC ([3]; with inducer 100 μg/ml): 256 µg/mL (≈ 567 µM)
MIC ([3]; without inducer): >256 µg/mL
MIC ([4]; with inducer 100 μg/ml): 128 µg/mL (≈ 283 µM)
MIC ([4]; without inducer): 256 µg/mL (≈ 567 µM)
MIC ([5]; with inducer 100 μg/ml): 32 µg/mL (≈ 70.8 µM)
MIC ([5]; without inducer): 256 µg/mL (≈ 567 µM)
MIC ([6]; with inducer 100 μg/ml): 8 µg/mL (≈ 17.7 µM)
MIC ([6]; without inducer): 64 µg/mL (≈ 142 µM)
MIC ([7]; with inducer 100 μg/ml): 16 µg/mL (≈ 35.4 µM)
MIC ([7]; without inducer): 64 µg/mL (≈ 142 µM)
MIC ([8]; with inducer 100 μg/ml): 128 µg/mL (≈ 283 µM)
MIC ([8]; without inducer): 16 µg/mL (≈ 35.4 µM)
MIC ([9]; with inducer 100 μg/ml): 256 µg/mL (≈ 567 µM)
MIC ([9]; without inducer): >256 µg/mL
MIC (Escherichia coli; with inducer 100 μg/ml): 1 to 8 µg/mL
MIC (Escherichia coli; without inducer): 8 to 64 µg/mL
MIC (Hafnia alvei ATCC 13337; with inducer 100 μg/ml): 0.5 µg/mL (≈ 1.11 µM)
MIC (Hafnia alvei ATCC 13337; without inducer): 4 µg/mL (≈ 8.86 µM)
MIC ([10]; with inducer 100 μg/ml): 2 µg/mL (≈ 4.43 µM)
MIC ([10]; without inducer): 16 µg/mL (≈ 35.4 µM)
MIC (Proteus vulgaris OCC 195; with inducer 100 μg/ml): 8 µg/mL (≈ 17.7 µM)
MIC (Proteus vulgaris OCC 195; without inducer): 64 µg/mL (≈ 142 µM)
MIC ([11]; with inducer 100 μg/ml): >256 µg/mL
MIC ([11]; without inducer): >256 µg/mL
MIC (Salmonella): 2 to 8 µg/mL
MIC ([12]; with inducer 100 μg/ml): >256 µg/mL
MIC ([12]; without inducer): >256 µg/mL
MIC (Staph. aureus; with inducer 100 μg/ml): 0.5 to 2 µg/mL
MIC (Staph. aureus; without inducer): 4 to 8 µg/mL
MIC ([13]; with inducer 100 μg/ml): 8 µg/mL (≈ 17.7 µM)
MIC ([13]; without inducer): 64 µg/mL (≈ 142 µM)
MIC ([14]; with inducer 100 μg/ml): 64 µg/mL (≈ 142 µM)
MIC ([14]; without inducer): 128 µg/mL (≈ 283 µM)
MIC (Ent. faecalis): >256 µg/mL
MIC (S. epidermidis): 8 to 16 µg/mL
MIC (S. haemolyticus): 16 µg/mL (≈ 35.4 µM)
MIC (S. saprophyticus): 32 µg/mL (≈ 70.8 µM)
MIC (Str. pyogenes): 64 µg/mL (≈ 142 µM)
MIC (C. freundii): 64 µg/mL (≈ 142 µM)
MIC (Cr. sakazakii): 32 µg/mL (≈ 70.8 µM)
MIC (Ent. aerogenes): 32 µg/mL (≈ 70.8 µM)
MIC (Ent. cloacae): 16 µg/mL (≈ 35.4 µM)
MIC (Bacillus cereus): 256 µg/mL (≈ 567 µM)
MIC (Hafnia alvei): 8 µg/mL (≈ 17.7 µM)
MIC (Ps. aeruginosa): >256 µg/mL
MIC (Kleb. aerogenes): 32 µg/mL (≈ 70.8 µM)
